Measurements published in US8853230B2, “Inhibitors of JAK” (Portola Pharmaceuticals, Inc., priority 2009, dated 2014).

Experiments:
JAK1 = target: T1, JAK1 (Homo sapiens, UniProt P23458); assay: Z'-LYTE kinase assay, JAK1 tyrosine phosphorylation activity; format: biochemical; conditions: read-out: JAK 1 IC50
T1 construct: 5 μl of catalytic domain recombinant Kinase enzyme+Tyr peptide substrate (Invitrogen, Calif.); purchased Invitrogen
Summary of the method: (§1)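 Recombinant catalytic-domain kinase was incubated with coumarin/fluorescein-labelled Tyr6 peptide, ATP and compound (1% DMSO final) for 1 h at room temperature. Protease development then ran 1 h at room temperature. Emission ratio at 445/520 nm (excitation 400 nm) gave percent phosphorylation; IC50s came from 4-parameter logistic fits.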

JAK2 = target: T2, JAK2 (Homo sapiens, UniProt O60674); assay: Z'-LYTE kinase assay, JAK2 tyrosine phosphorylation activity; format: biochemical
T2 construct: 5 μl of catalytic domain recombinant Kinase enzyme+Tyr peptide substrate (Invitrogen, Calif.); purchased Invitrogen
T2 sequence (O60674 849-1124 limits assumed): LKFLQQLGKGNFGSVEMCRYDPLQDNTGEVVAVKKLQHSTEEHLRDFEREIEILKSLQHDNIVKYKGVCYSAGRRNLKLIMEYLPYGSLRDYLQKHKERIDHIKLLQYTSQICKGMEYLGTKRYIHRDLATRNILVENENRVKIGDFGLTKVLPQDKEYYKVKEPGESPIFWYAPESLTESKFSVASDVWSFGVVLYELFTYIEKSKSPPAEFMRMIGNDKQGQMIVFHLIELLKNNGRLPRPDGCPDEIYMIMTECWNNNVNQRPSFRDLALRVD
Summary of the method: as §1

JAK3 = target: T3, JAK3 (Homo sapiens, UniProt P52333); assay: Z'-LYTE kinase assay, JAK3 tyrosine phosphorylation activity; format: biochemical
T3 construct: 5 μl of catalytic domain recombinant Kinase enzyme+Tyr peptide substrate (Invitrogen, Calif.); purchased Invitrogen
T3 sequence (P52333 822-1111 limits assumed): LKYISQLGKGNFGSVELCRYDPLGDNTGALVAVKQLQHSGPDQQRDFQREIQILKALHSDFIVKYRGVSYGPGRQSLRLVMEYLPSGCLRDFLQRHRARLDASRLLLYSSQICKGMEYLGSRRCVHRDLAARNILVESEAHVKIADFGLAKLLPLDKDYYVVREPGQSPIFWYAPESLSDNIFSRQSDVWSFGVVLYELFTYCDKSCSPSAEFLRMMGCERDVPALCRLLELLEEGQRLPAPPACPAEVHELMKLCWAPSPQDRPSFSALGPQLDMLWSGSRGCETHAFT
Summary of the method: as §1

Syk = Syk (Homo sapiens, UniProt P43405); assay: Syk IC50 (Table 1; method not given); format: biochemical
TYK2 = target: T4, TYK2 (Homo sapiens, UniProt P29597); assay: Z'-LYTE kinase assay, TYK2 tyrosine phosphorylation activity; format: biochemical
T4 construct: 5 μl of catalytic domain recombinant Kinase enzyme+Tyr peptide substrate (Invitrogen, Calif.); purchased Invitrogen
T4 sequence (P29597 897-1176 limits assumed): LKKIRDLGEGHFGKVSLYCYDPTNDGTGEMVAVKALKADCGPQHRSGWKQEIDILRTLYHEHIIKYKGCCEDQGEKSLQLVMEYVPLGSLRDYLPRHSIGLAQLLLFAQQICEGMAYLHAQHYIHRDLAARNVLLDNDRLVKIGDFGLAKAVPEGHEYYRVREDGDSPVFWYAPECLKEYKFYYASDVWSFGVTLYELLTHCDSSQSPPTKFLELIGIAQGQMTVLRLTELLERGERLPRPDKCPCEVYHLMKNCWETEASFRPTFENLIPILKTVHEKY
Summary of the method: as §1

[1] = tested on: IL4-induced phospho STAT6 formation in Ramos B lymphocytes; assay: Inhibition of IL4-induced phospho STAT6 formation in Ramos B lymphocytes (flow cytometry); format: cell-based, human; conditions: Homo sapiens; for inhibition at 0.2 µM: 200 nM compound, read-out: % Inhibition of IL-4 Induced STAT6 Phosphorylation 200 nM; for inhibition at 1 µM: 1 μM compound, read-out: % Inhibition of IL-4 Induced STAT6 Phosphorylation 1 μM
Summary of the method: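 Human Ramos B cells (0.5 million) pre-incubated 1 h at 37°C/5% CO2 with compound or DMSO, then stimulated with 1 ng/ml IL4 for 10 min. Cells were PFA-fixed, methanol-permeabilized and stained with Alexa-anti-phosphoSTAT6 (Y641); flow cytometry mean fluorescence gave percent inhibition of the IL4 signal.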

T1 sequence (P23458 875-1153 limits assumed): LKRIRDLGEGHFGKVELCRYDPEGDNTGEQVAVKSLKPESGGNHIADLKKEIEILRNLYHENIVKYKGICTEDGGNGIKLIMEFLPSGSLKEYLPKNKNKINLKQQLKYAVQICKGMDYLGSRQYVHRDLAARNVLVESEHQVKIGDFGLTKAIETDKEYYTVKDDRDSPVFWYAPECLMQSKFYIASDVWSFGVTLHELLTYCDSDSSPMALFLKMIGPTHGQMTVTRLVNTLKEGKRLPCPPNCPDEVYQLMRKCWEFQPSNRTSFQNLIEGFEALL

IC50 (JAK1) | IC50 (JAK2) | IC50 (JAK3) | IC50 (Syk) | IC50 (TYK2) | Structure (SMILES) | inhibition at 0.2 µM [1] | inhibition at 1 µM [1]
10 to 100 nM | 10 to 100 nM | 1 to 10 nM | 100 to 1000 nM | – | CC(=O)Nc1cccc(Nc2ncc(C(N)=O)c(NC3CCCC3)n2)c1 [Example 15, 2-(3-acetamidophenylamino)-4-(cyclopentylamino)pyrimidine-5-carboxamide] | – | –
100 to 1000 nM | 10 to 100 nM | 10 to 100 nM | 100 to 1000 nM | – | CC(=O)Nc1cccc(Nc2ncc(C(N)=O)c(NCCc3ccccc3)n2)c1 [Example 56, 2-(3-acetamidophenylamino)-4-(phenethylamino)pyrimidine-5-carboxamide] | – | –
10 to 100 nM | 10 to 100 nM | 1 to 10 nM | 100 to 1000 nM | – | COC(=O)Nc1cccc(Nc2ncc(C(N)=O)c(NC3CCCC3)n2)c1 [Example 23, methyl 3-(5-carbamoyl-4-(cyclopentylamino)pyrimidin-2-ylamino)phenylcarbamate] | – | –
– | – | – | 100 to 1000 nM | – | CC(=O)Nc1cccc(Nc2ncc(C(N)=O)c(NC(C)(C)C)n2)c1 [Example 13, 2-(3-acetamidophenylamino)-4-(tert-butylamino)pyrimidine-5-carboxamide] | – | –
– | – | – | 100 to 1000 nM | – | COCCNc1nc(Nc2cccc(NC(C)=O)c2)ncc1C(N)=O [Example 14, 2-(3-acetamidophenylamino)-4-(2-methoxyethylamino)pyrimidine-5-carboxamide] | – | –
100 to 1000 nM | 10 to 100 nM | < 1 nM | > 1000 nM | – | CN(C)[C@@H]1CCN(C(=O)Nc2cccc(Nc3cc(NCc4cccc(F)c4)c(C(N)=O)cn3)c2)C1 [Example 306, (R)-6-(3-(3-(dimethylamino)pyrrolidine-1-carboxamido)phenylamino)-4-(3-fluorobenzylamino)nicotinamide] | – | –
100 to 1000 nM | 100 to 1000 nM | 10 to 100 nM | > 1000 nM | – | CNC(=O)CNc1nc(Nc2cccc(NC(C)=O)c2)ncc1C(N)=O [Example 72, 2-(3-acetamidophenylamino)-4-(2-(methylamino)-2-oxoethylamino)pyrimidine-5-carboxamide] | – | –
10 to 100 nM | 10 to 100 nM | 1 to 10 nM | 100 to 1000 nM | – | CC(=O)Nc1cccc(Nc2ncc(C(N)=O)c(NCc3c(F)ccc(F)c3F)n2)c1 [Example 59, 2-(3-acetamidophenylamino)-4-(2,3,6-trifluorobenzylamino)pyrimidine-5-carboxamide] | – | –
100 to 1000 nM | 100 to 1000 nM | 100 to 1000 nM | > 1000 nM | – | CC(=O)Nc1cccc(Nc2ncc(C(N)=O)c(NCC(N)=O)n2)c1 [Example 50, 2-(3-acetamidophenylamino)-4-(2-amino-2-oxoethylamino)pyrimidine-5-carboxamide] | – | –
10 to 100 nM | 10 to 100 nM | 1 to 10 nM | 100 to 1000 nM | – | NC(=O)Nc1cccc(Nc2ncc(C(N)=O)c(NC3CCCC3)n2)c1 [Example 33, 4-(cyclopentylamino)-2-(3-ureidophenylamino)pyrimidine-5-carboxamide] | – | –
10 to 100 nM | 10 to 100 nM | 1 to 10 nM | 100 to 1000 nM | – | CNC(=O)Nc1cccc(Nc2ncc(C(N)=O)c(NC3CCCC3)n2)c1 [Example 34, 4-(cyclopentylamino)-2-(3-(3-methylureido)phenylamino)pyrimidine-5-carboxamide] | – | –
> 1000 nM | > 1000 nM | 100 to 1000 nM | > 1000 nM | – | COCC(=O)Nc1cccc(Nc2ncc(C(N)=O)c(NCc3ccc(Cl)c(Cl)c3)n2)c1 [Example 46, 4-(3,4-dichlorobenzylamino)-2-(3-(2-methoxyacetamido)phenylamino)pyrimidine-5-carboxamide] | – | –
100 to 1000 nM | 100 to 1000 nM | 10 to 100 nM | > 1000 nM | – | CC(=O)Nc1cccc(Nc2ncc(C(N)=O)c(NCc3ccc(Cl)cc3)n2)c1 [Example 69, 2-(3-acetamidophenylamino)-4-(4-chlorobenzylamino)pyrimidine-5-carboxamide] | – | –
10 to 100 nM | 10 to 100 nM | 1 to 10 nM | 100 to 1000 nM | – | COCC(=O)Nc1cccc(Nc2ncc(C(N)=O)c(NC3CCC3)n2)c1 [Example 55, 4-(cyclobutylamino)-2-(3-(2-methoxyacetamido)phenylamino)pyrimidine-5-carboxamide] | – | –
10 to 100 nM | 1 to 10 nM | 1 to 10 nM | 100 to 1000 nM | – | COCC(=O)Nc1cccc(Nc2ncc(C(N)=O)c(NCc3c(F)ccc(F)c3F)n2)c1 [Example 58, 2-(3-(2-methoxyacetamido)phenylamino)-4-(2,3,6-trifluorobenzylamino)pyrimidine-5-carboxamide] | – | –
– | – | – | 100 to 1000 nM | – | COCCCNc1nc(Nc2cccc(NC(C)=O)c2)ncc1C(N)=O [Example 16, 2-(3-acetamidophenylamino)-4-(3-methoxypropylamino)pyrimidine-5-carboxamide] | – | –
– | – | – | 100 to 1000 nM | – | CC(=O)Nc1cccc(Nc2ncc(C(N)=O)c(NCC3CC3)n2)c1 [Example 12, 2-(3-acetamidophenylamino)-4-(cyclopropylmethylamino)pyrimidine-5-carboxamide] | – | –
10 to 100 nM | 10 to 100 nM | 1 to 10 nM | 100 to 1000 nM | – | CC(=O)Nc1cccc(Nc2ncc(C(N)=O)c(NC3CCC3)n2)c1 [Example 1, 2-(3-acetamidophenylamino)-4-(cyclobutylamino)pyrimidine-5-carboxamide] | – | –
– | – | – | 100 to 1000 nM | – | CNc1nc(Nc2cccc(NC(C)=O)c2)ncc1C(N)=O [Example 8, 2-(3-acetamidophenylamino)-4-(methylamino)pyrimidine-5-carboxamide] | – | –
– | – | – | 100 to 1000 nM | – | CCNc1nc(Nc2cccc(NC(C)=O)c2)ncc1C(N)=O [Example 9, 2-(3-acetamidophenylamino)-4-(ethylamino)pyrimidine-5-carboxamide] | – | –
– | – | – | 100 to 1000 nM | – | CC(=O)Nc1cccc(Nc2ncc(C(N)=O)c(NC(C)C)n2)c1 [Example 11, 2-(3-acetamidophenylamino)-4-(isopropylamino)pyrimidine-5-carboxamide] | – | –
– | – | – | 100 to 1000 nM | – | C#CCNc1nc(Nc2cccc(NC(C)=O)c2)ncc1C(N)=O [Example 10, 2-(3-acetamidophenylamino)-4-(prop-2-ynylamino)pyrimidine-5-carboxamide] | – | –
10 to 100 nM | 10 to 100 nM | 1 to 10 nM | – | 1 to 10 nM | CN(C)[C@@H]1CCN(C(=O)Nc2cccc(Nc3ncc(C(N)=O)c(NCc4ccccc4)n3)c2)C1 [Example 210, (R)-4-(benzylamino)-2-(3-(3-(dimethylamino)pyrrolidine-1-carboxamido)phenylamino)pyrimidine-5-carboxamide] | 48% | 81.7%
> 1000 nM | 100 to 1000 nM | 10 to 100 nM | – | 100 to 1000 nM | C[C@@H](Nc1nc(Nc2ccc(Cl)c(NC(=O)N3CCCC3)c2)ncc1C(N)=O)c1ccccc1 [Example 221, (R)-2-(4-chloro-3-(pyrrolidine-1-carboxamido)phenylamino)-4-(1-phenylethylamino)pyrimidine-5-carboxamide] | 2.3% | 6.3%
> 1000 nM | 100 to 1000 nM | 10 to 100 nM | – | > 1000 nM | CNC(=O)Nc1cc(Nc2ncc(C(N)=O)c(NCc3cccc(Cl)c3)n2)ccc1Cl [Example 165, 2-(4-chloro-3-(3-methylureido)phenylamino)-4-(3-chlorobenzylamino)pyrimidine-5-carboxamide] | 57.3% | 89.7%
100 to 1000 nM | 100 to 1000 nM | 1 to 10 nM | – | 10 to 100 nM | NC(=O)c1cnc(Nc2ccc(Cl)c(NC(=O)N3CCC3)c2)nc1NCc1ccccc1 [Example 233, 2-(3-(azetidine-1-carboxamido)-4-chlorophenylamino)-4-(benzylamino)pyrimidine-5-carboxamide] | 7% | 37.7%
100 to 1000 nM | 100 to 1000 nM | 10 to 100 nM | – | 100 to 1000 nM | COCC(=O)Nc1ccc(F)c(Nc2ncc(C(N)=O)c(NCc3ccccc3)n2)c1 [Example 172, 4-(benzylamino)-2-(2-fluoro-5-(2-methoxyacetamido)phenylamino)pyrimidine-5-carboxamide] | 11.3% | 33%
10 to 100 nM | 10 to 100 nM | 1 to 10 nM | – | 1 to 10 nM | CC(=O)Nc1cc(Nc2ncc(C(N)=O)c(NCc3ccccc3)n2)ccc1F [Example 156, 2-(3-acetamido-4-fluorophenylamino)-4-(benzylamino)pyrimidine-5-carboxamide] | 28% | 71.3%
